From ChEMBL document CHEMBL3430912, “GSK Tres Cantos Anti-Kinetoplastid Screening (TCAKS) Data”

Experiments:
[1] = test system: Trypanosoma cruzi; assay: (§1) GSK_TCAKS: pIC50 Trypanosoma cruzi Imaging: Infected Cells. […] Cells were then washed once with PBS before infection. T. cruzi trypomastigotes, collected at days 5 to 8 after infection from LLC-MK2 parasite infected cultures, were allowed to swim out for 4h at 37C from a centrifuged pellet (2,500 rpm/10 min/room temperature). Trypomastigotes were then collected and counted in a CASY Cell Counter. Trypomastigotes, in supplemented DMEM, were added to H9c2 cultures in a multiplicity of infection of 1 and incubated for 18 h. Cells were washed once with PBS before incubation of the infected H9c2 monolayer with trypsin (Life-Technologies) to detach cells from the flask. Cells were counted in a CASY Cell Counter using a 150 um capillary and their density set at 5 * 10^4 cells per mL in supplemented assay DMEM. Infected H9c2 were dispensed into 384-well poly-lysine coated assay plates at 50uL per well using a Multidrop Combi dispenser. After seeding them, the plates were incubated at 37C, 5% CO2 for 72h. Cultures were then fixed and stained by addition of 50 uL of a solution containing 8% formaldehyde and 4 uM DRAQ5 DNA dye (BioStatus, UK) per well. […] Five images were collected per well for reliable statistical analysis. Automated image analysis was performed with a script developed on Acapella High Content Imaging and Analysis Software (PerkinElmer). Output: percentage of infected cells per well as a second infection marker.; assay type: functional, organism-based, Rattus norvegicus; details: H9c2, 4 h
[2] = test system: Leishmania donovani; assay: GSK_TCAKS: pIC50 Leishmania donovani Imaging: Amastigotes/Macrophages. Assay plates (384-well) were prepared by adding 250nL of compound to each well. For single shot assay, the final compound concentration was 5 uM. […] Automated image analysis was performed with a script developed on Acapella High Content Imaging and Analysis Software (PerkinElmer). Output: Average number of amastigotes per macrophage cell were reported for each well.; assay type: functional, organism-based, Homo sapiens; details: THP-1
[3] = test system: Trypanosoma brucei brucei; assay: GSK_TCAKS: pIC50 Trypanosoma brucei viability assay using luminiscence. Assay plates (1536-well) were prepared. T. brucei cultures were harvested and counted in a CASY cell counter. A parasite suspension was prepared at a final concentration of 5 * 10^4 cells/mL in complete HMI9 medium and 6uL was dispensed to all wells containing compounds using a Multidrop Combi dispenser. 6uL of HMI9 media with 0.4% DMSO were dispensed to control columns. Plates were incubated for 24 h at 37C, 5% CO2 then tempered for 10 min at room temperature. ATP content was quantified by adding 4 uL of CellTiter-Glo Reagent (Promega) according to the manufacturer's instructions. Luminescence was measured using a ViewLux.; assay type: functional, organism-based; details: Lister 427, CASY
[4] = biological target: Sterol 14-alpha demethylase (Trypanosoma cruzi (strain CL Brener), UniProt Q7Z1V1); assay: GSK_TCAKS: pIC50 CYP51 from Trypanosoma cruzi.; assay type: functional
[5] = test system: Trypanosoma brucei brucei; assay: GSK_TCAKS: pIC50 Trypanosoma brucei viability assay using fluorescence intensity. Assay plates (1536-well) were prepared by dispensing 25nL of compound solution per well using an Echo acoustic dispenser (Labcyte).; assay type: functional, organism-based; details: Lister 427, 2 h
[6] = GSK_TCAKS: pIC50 HepG2 human cell line viability assay using luminiscence. […] Seeding density was checked to ensure that new mono-layers were not more than 50% confluent at the time of harvesting. Cell suspension was added to 500 mL of the same medium at a final density of 1.2 * 10^5 cells/mL. This cell suspension was dispensed (25 uL, 3000 cells per well) into 384-well clear-bottom plates using a Multidrop Combi dispenser. Prior to addition of the cell suspension, the screening compounds (250 nL) were pre-dispensed into the plates with an Echo liquid handler. Plates were incubated for 48 h at 37C, 5% CO2. After incubation, plates equilibrated at room temperature for 30 min before proceeding to develop the luminescent signal. The signal developer, CellTiter-Glo Reagent, was allowed to equilibrate at room temperature for 30 min and added to the plates (25uL per well) using a Multidrop Combi dispenser. Plates were left for 10 min at room temperature for stabilization and then read using a ViewLux.; assay type: toxicity, cell-based
[7] = test system: Trypanosoma cruzi; assay: GSK_TCAKS: pIC50 Trypanosoma cruzi viability assay using beta-GAL activity. This assay was run at single shot at 5uM compound concentration per well. The biological reagents consisted of NIH-3T3 host cells and trypomastigotes parasitic cells; both cell types were set to a 3.3 * 10^5 cells/mL dilution in assay DMEM by means of a CASY cell counter device using a 60um capillary. 6 uL of the mixture were dispensed per well (about 1 * 10^3 host-cells and 1 * 10^3 parasites) with a Multidrop Combi dispenser. […] In all wells, the percentage of DMSO never exceeded 0.5%. Plates incubated for four days at 37C, 5% CO2. The substrate used for the assay fluorescence intensity (FLINT) readout was resorufin-beta-D-galactopiranoside (Sigma-Aldrich) at 5uM per well. It was diluted in PBS supplemented with the soft detergent Igepal (Fluka).; assay type: functional, organism-based, Mus musculus; details: Tulahuen, NIH3T3
[8] = test system: Leishmania donovani; assay: GSK_TCAKS: pIC50 Leishmania donovani Imaging: Infected Macrophages. Assay plates (384-well) were prepared by adding 250nL of compound to each well. For single shot assay, the final compound concentration was 5 uM. […] Automated image analysis was performed with a script developed on Acapella High Content Imaging and Analysis Software (PerkinElmer). Output: Percent of infected macrophage cells were reported for each well.; assay type: functional, organism-based, Homo sapiens; details: THP-1
[9] = test system: Trypanosoma cruzi; assay: GSK_TCAKS: pIC50 Trypanosoma cruzi Imaging: Amastigotes/Cell. […] Cells were then washed once with PBS before infection. T. cruzi trypomastigotes, collected at days 5 to 8 after infection from LLC-MK2 parasite infected cultures, were allowed to swim out for 4h at 37C from a centrifuged pellet (2,500 rpm/10 min/room temperature). Trypomastigotes were then collected and counted in a CASY Cell Counter. Trypomastigotes, in supplemented DMEM, were added to H9c2 cultures in a multiplicity of infection of 1 and incubated for 18 h. Cells were washed once with PBS before incubation of the infected H9c2 monolayer with trypsin (Life-Technologies) to detach cells from the flask. Cells were counted in a CASY Cell Counter using a 150 um capillary and their density set at 5 * 10^4 cells per mL in supplemented assay DMEM. Infected H9c2 were dispensed into 384-well poly-lysine coated assay plates at 50uL per well using a Multidrop Combi dispenser. After seeding them, the plates were incubated at 37C, 5% CO2 for 72h. Cultures were then fixed and stained by addition of 50 uL of a solution containing 8% formaldehyde and 4 uM DRAQ5 DNA dye (BioStatus, UK) per well. […] Five images were collected per well for reliable statistical analysis. Automated image analysis was performed with a script developed on Acapella High Content Imaging and Analysis Software (PerkinElmer). Output: number of amastigotes per cell as infection level measurement.; assay type: functional, organism-based, Rattus norvegicus; details: H9c2, 4 h
[10] = test system: Leishmania donovani; assay: GSK_TCAKS: pIC50 Leishmania donovani Imaging: THP-1 Host Macrophages. Assay plates (384-well) were prepared by adding 250nL of compound to each well. For single shot assay, the final compound concentration was 5 uM. […] Automated image analysis was performed with a script developed on Acapella High Content Imaging and Analysis Software (PerkinElmer). Output: THP-1 cell count were reported for each well.; assay type: functional, organism-based, Homo sapiens
[11] = test system: Trypanosoma cruzi; assay: as §1, with “H2C9” for “Trypanosoma cruzi”, “H9c2 Host Cardiomyocytes.” for “Infected Cells.”, “Number” for “percentage”, “H9c2 Host Cardiomyocytes nuclei to determine drug-related cytotoxicity.” for “infected cells per well as a second infection marker.”; assay type: functional, organism-based, Rattus norvegicus; details: H9c2, 4 h
[12] = test system: Leishmania donovani; assay: GSK_TCAKS: pIC50 Leishmania donovani viability assay using fluorescence intensity. Assay plates (1536-well) were prepared by adding 30nL per well of compound. For single shot assay, the final compound concentration was 5uM. […] Briefly, eGFP LdBOB axenic amastigotes were harvested, fixed and counted in a CASY cell counter (Roche-Applied Science). A final concentration of 1.5 * 10^5 cells per well were prepared in amastigote media containing 500 U/mL penicillin/streptomycin (Invitrogen) and 6uL was dispensed to each experimental well using a Multidrop Combi dispenser (Thermo Scientific). 6uL of assay media was dispensed to control columns used as reference for 100% compound response. Following incubation for 72 h at 37C, 5% CO2, 2 uL of resazurin was added to each well at a final concentration of 0.5 mM in phosphate buffered saline (PBS) with IGEPAL (Sigma-Aldrich), 0.05% (v/v).; assay type: functional, organism-based

Sequence of Sterol 14-alpha demethylase (Q7Z1V1 whole entry): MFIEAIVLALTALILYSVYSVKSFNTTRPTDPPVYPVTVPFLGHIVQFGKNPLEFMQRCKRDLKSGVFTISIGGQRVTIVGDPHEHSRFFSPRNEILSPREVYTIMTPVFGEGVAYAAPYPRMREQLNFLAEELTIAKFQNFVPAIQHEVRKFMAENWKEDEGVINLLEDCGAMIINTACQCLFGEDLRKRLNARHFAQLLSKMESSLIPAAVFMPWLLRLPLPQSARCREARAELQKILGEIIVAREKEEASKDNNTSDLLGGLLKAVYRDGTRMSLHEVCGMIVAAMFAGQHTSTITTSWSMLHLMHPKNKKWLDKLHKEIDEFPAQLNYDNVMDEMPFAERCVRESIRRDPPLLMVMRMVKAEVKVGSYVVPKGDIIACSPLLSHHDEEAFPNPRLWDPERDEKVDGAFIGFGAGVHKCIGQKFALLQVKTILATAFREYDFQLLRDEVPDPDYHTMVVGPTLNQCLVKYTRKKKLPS

| Structure (SMILES) | IC50 [1] [µM] | IC50 [2] [µM] | IC50 [3] [µM] | IC50 [4] [µM] | IC50 [5] [µM] | IC50 at 48 h [6] [µM] | IC50 [7] [µM] | IC50 [8] [µM] | IC50 [9] [µM] | IC50 [10] [µM] | IC50 [11] [µM] | IC50 [12] [µM] |
| --- | --- | --- | --- | --- | --- | --- | --- | --- | --- | --- | --- | --- |
| COc1cc(OC)cc(C(NS(=O)(=O)c2ccc(Cl)c(C(F)(F)F)c2)c2nccn2C)c1 (configuration not stated) | 6.31 | 5.01 | 7.94 | 31.6 | 7.94 | > 100 | 3.98 | 6.31 | 3.16 | > 50.1 | 10 | 10 |
| Cc1ccc(C)c(CN2C(=O)NC3(CCc4ccccc43)C2=O)c1 (configuration not stated) | 20 | 15.8 | 1 | 39.8 | 0.501 | > 100 | 25.1 | > 50.1 | 7.94 | > 50.1 | > 50.1 | > 50.1 |
| CCN(CC)c1ccc(S(=O)(=O)N(CC)CC)c2nonc12 | 50.1 | 0.126 | 25.1 | 25.1 | 25.1 | > 100 | 25.1 | 0.398 | 20 | 15.8 | > 50.1 | 6.31 |
| COc1ccc(OC)c2c(=O)c(Cc3ccccc3)c(C)[nH]c12 | 0.501 | 2.51 | > 39.8 | > 100 | > 39.8 | > 100 | 0.224 | 3.98 | 0.126 | > 50.1 | > 50.1 | 0.398 |
| CCCn1c(NC(=O)CCn2cc(Br)cn2)nc2ccccc21 | 6.31 | 5.01 | 7.94 | 10 | 7.94 | > 100 | 5.01 | 10 | 2.51 | > 50.1 | 25.1 | 10 |
| CCn1c(NC(=O)Cc2ccc(F)cc2)nc2ccccc21 | 7.94 | 6.31 | 5.01 | 25.1 | 3.16 | > 100 | 5.01 | 10 | 3.98 | > 50.1 | > 50.1 | 10 |
| N#Cc1cc(-c2ccnc(Nc3cccc(CN4CCOCC4)c3)n2)ccc1NCCN | 31.6 | 0.794 | 1.26 | 31.6 | 0.398 | 50.1 | 7.94 | 1.58 | 15.8 | 7.94 | 7.94 | 3.98 |
| CN(C)Cc1cccc(Nc2nccc(-c3ccc(NCCN)c(C#N)c3)n2)c1 | 10 | 0.501 | 0.2 | 6.31 | 0.0501 | 25.1 | 1 | 1.26 | 1.58 | 6.31 | 2 | 2.51 |
| O=C(CC1(O)C(=O)N(Cc2cccs2)c2ccc(Br)cc21)c1cccnc1 (configuration not stated) | 39.8 | > 50.1 | 0.794 | 12.6 | 0.631 | 63.1 | 5.01 | > 50.1 | 25.1 | 20 | 3.98 | > 50.1 |
| COc1cnc2ccc(=O)n(CCN3CCC(NC/C=C/c4cc(F)ccc4F)CC3)c2c1 | 0.02 | 2 | 0.794 | 15.8 | 0.398 | 63.1 | 0.0158 | 5.01 | 0.01 | 39.8 | 15.8 | 5.01 |
| Cc1cc2cc(CNc3ccc4c(c3)OCO4)c(=O)n(CCO)c2cc1C | 0.251 | 0.251 | > 39.8 | 10 | 25.1 | > 100 | 0.631 | 0.501 | 0.2 | 39.8 | > 50.1 | 6.31 |
